Measured values as given in patent publication US20240358693A1, “METHODS OF TREATING PAIN” (Aisa Pharma, Inc., priority 2023, published 2024).

Tested on: participants with Raynaud's Phenomenon secondary mostly to systemic sclerosis (SSc-RP)
Experiment: Frequency of weekly symptomatic RP attacks (patient diary), Phase 2a study Part A
Format: in vivo, human
Procedure: A randomized, placebo-controlled phase 2a study was performed and is in progress to assess the safety and efficacy of cilnidipine (10 mg and 20 mg) alone and in combination with 5 mg tadalafil, in participants with diagnosis of scleroderma and/or secondary Raynaud's disease.
The relevant metrics measured by this tool daily are: • Study medication • SSc-RP symptoms (Reporting an attack including duration of attack) • Severity of the attack considering all symptoms of the attack e.g., tingling, numbness, pain, color changes (VAS 0-10 cm scale) • Participant's location at the time of the attack (inside home/outside home) • Selecting symptoms experienced during the attack (tingling, numbness, pain, color changes, other) • Pain rating during the attack (11-point Likert scale) • The RCS based on how much difficulty participants had with Raynaud's today, how many attacks the participant had, and how long they lasted. Participants will also be asked to consider how much pain, numbness, or other symptoms the Raynaud's caused in fingers (including painful sores), and how much the Raynaud's alone affected the use of hands today (VAS 0-10 cm scale).
Percent change from baseline evaluation for frequency of weekly RP attacks were or will be used as the primary efficacy variable. The sponsor-developed participant-informed diary will be used to record data. Frequency of weekly RP attacks is defined as the total number of RP attacks divided by the number of days with available diary data within the last 7 days of each dosing period then multiplied by 7. Total number of RP attacks during the last 7 days of screening period divided by the number of days with available data then multiplied by 7 will be used as baseline for the analysis of all periods. The variable will be calculated as follows:
Percentage change={(weekly RP attacks for the last 7 days of each dosing period−Baseline weekly RP attacks)/Baseline weekly RP attacks}*100%.
Absolute change=weekly RP attacks for the last 7 days of each dosing period−Baseline weekly RP attacks
Percent change from baseline evaluation for frequency of weekly RP attacks was and will be the primary efficacy endpoint. Frequency of weekly RP attacks is defined as the total number of RP attacks divided by the number of days with available diary data within the last 7 days of each dosing period then multiplied by 7. Total number of RP attacks during the last 7 days of screening period divided by the number of days with available data then multiplied by 7 will be used as baseline for the analysis of all periods.
The following data was actually obtained in accordance with the protocol and plan delineated in Examples 1 and 2. The accompanying data involved 11 patients out of the planned 76 patient study. The study was done in patients with scleroderma (systemic sclerosis) who had relatively frequent Raynaud symptoms as they needed to average at least one attack per day during a screening period of up to two weeks. In this first phase of this double-blind placebo-controlled, prospective randomized study, patients were treated in parallel and after meeting study criteria were randomized to receive either placebo, cilnidipine 10 mg daily, cilnidipine 20 mg daily, tadalafil 5 mg daily, cilnidipine 10 mg plus 5 mg of tadalafil, or cilnidipine 20 mg plus 5 mg of tadalafil.

[1] = Tadalafil 5 mg (N = 2), ITT Part A
[2] = Tadalafil 5 mg, n 1, Excluding Outliers, ITT Part A
[3] = Tadalafil 5 mg, n 2, by Baseline RCS, 2nd block (RCS >5.0), ITT Part A
[4] = excluding outliers, by baseline RCS, second subgroup, cilnidipine 10 mg, tadalafil 5 mg daily

`CN1CC(=O)N2[C@H](c3ccc4c(c3)OCO4)c3[nH]c4ccccc4c3C[C@@H]2C1=O` [Tadalafil, tadalafil] was tested, and the “Weekly Symptomatic RP Attacks Change from Baseline, Mean” value [1] was 4.50, the “Weekly Symptomatic RP Attacks Change from Baseline, Median” value [1] was 4.50 and the “Weekly Symptomatic RP Attacks Percent Change from Baseline, Mean” value [1] was 62.50%. The “Weekly Symptomatic RP Attacks Percent Change from Baseline, Median” value [1] was 62.50%, the “Weekly Symptomatic RP Attacks, Mean” value [1] was 12.50 and the “Weekly Symptomatic RP Attacks, Median” value [1] was 12.50. For the same compound, the “Weekly Symptomatic RP Attacks Change from Baseline, Mean (SD)” value [2] was 6.00, the “Weekly Symptomatic RP Attacks Change from Baseline, Median” value [2] was 6.00 and the “Weekly Symptomatic RP Attacks Percent Change from Baseline, Mean (SD)” value [2] was 50.00%. For the same compound, the “Weekly Symptomatic RP Attacks Percent Change from Baseline, Median” value [2] was 50.00%, the “Weekly Symptomatic RP Attacks, Mean (SD)” value [2] was 18.00 and the “Weekly Symptomatic RP Attacks, Median” value [2] was 18.00. The “Weekly Symptomatic RP Attacks Change from Baseline, Mean (SD)” value [3] was 4.50 (2.121), the “Weekly Symptomatic RP Attacks Change from Baseline, Median” value [3] was 4.50 and the “Weekly Symptomatic RP Attacks Percent Change from Baseline, Mean (SD)” value [3] was 62.50 (17.678) %. The “Weekly Symptomatic RP Attacks Percent Change from Baseline, Median” value [3] was 62.50%, the “Weekly Symptomatic RP Attacks, Mean (SD)” value [3] was 12.50 (7.778) and the “Weekly Symptomatic RP Attacks, Median” value [3] was 12.50. The “Weekly Symptomatic RP Attacks Change from Baseline, Max” value [4] was 6.0, 6.0, the “Weekly Symptomatic RP Attacks Change from Baseline, Mean (SD)” value [4] was 6.00 and the “Weekly Symptomatic RP Attacks Change from Baseline, Median” value [4] was 6.00. The “Weekly Symptomatic RP Attacks Change from Baseline, Min” value [4] was 6.0, 6.0, the “Weekly Symptomatic RP Attacks Change from Baseline, Q1” value [4] was 6.00, 6.00 and the “Weekly Symptomatic RP Attacks Change from Baseline, Q3” value [4] was 6.00, 6.00. The “Weekly Symptomatic RP Attacks Percent Change from Baseline, Max” value [4] was 50.0, 50.0%, the “Weekly Symptomatic RP Attacks Percent Change from Baseline, Mean (SD)” value [4] was 50.00% and the “Weekly Symptomatic RP Attacks Percent Change from Baseline, Median” value [4] was 50.00%. The “Weekly Symptomatic RP Attacks Percent Change from Baseline, Min” value [4] was 50.0, 50.0%, the “Weekly Symptomatic RP Attacks Percent Change from Baseline, Q1” value [4] was 50.00, 50.00% and the “Weekly Symptomatic RP Attacks Percent Change from Baseline, Q3” value [4] was 50.00, 50.00%. For the same compound, the “Weekly Symptomatic RP Attacks, Max” value [4] was 18.0, 18.0, the “Weekly Symptomatic RP Attacks, Mean (SD)” value [4] was 18.00 and the “Weekly Symptomatic RP Attacks, Median” value [4] was 18.00. The “Weekly Symptomatic RP Attacks, Min” value [4] was 18.0, 18.0, the “Weekly Symptomatic RP Attacks, Q1” value [4] was 18.00, 18.00 and the “Weekly Symptomatic RP Attacks, Q3” value [4] was 18.00, 18.00.
